Results published in patent US20160158317A1, “Antimicrobial Peptide Variants and Polynucleotides Encoding Same” (Adenium Biotech A/S, priority 2010, published 2016).
Where “and” joins values, the source holds several entries; their conditions need not be identical. Identical values can stand only once. Marks after values point to notes of the source that are not given here.

System: Escherichia coli AID#172
Test: Peritonitis/sepsis model in neutropenic NMRI mice, effect over time of 7.5 mg/kg (Example 3)
Type: in vivo
Parameters: key to Score T = 0 hour / Score T = 5 hours / Score T = 2 hours: Score 0: Healthy.; Score 1: Minor clinical signs of infection and inflammation e.g. observations of minor signs of distress or changed activity.; Score 2: Clear signs of infection like, social withdrawal, lack of curiosity, changed body position, piloerection, or changes in pattern of movement.; Score 3: Severe signs of infection like stiff movements, lack of curiosity, changed body position, piloerection, pain, or changes in pattern of movement.; Score 4: Severe pain and the mouse was sacrificed immediately to minimize the suffering of the animal.; Score 5: The mouse was dead
Details: for CFU levels compared to vehicle: peritoneal fluid at 2 and 5 hours, blood at 5 hours, p<0.01; for difference in CFU levels compared to vehicle treatment, blood / difference in CFU levels compared to vehicle treatment, peritoneum: single i.v. dose (NZ17074 7.5 mg/kg, Meropenem 40 mg/kg); for Score T = 0 hour: score at start of treatment; for log10 CFU Mean Blood / log10 CFU mean PF: group mean; for log10 CFU mean PF / log10 CFU PF: peritoneal fluid
Experimental: The purpose of this study was to investigate the in vivo efficacy of NZ17074 following intravenous (i.v.) administration of a single dose of 7.5 mg/kg. The effect was tested against Escherichia coli AID#172 in the peritonitis model in neutropenic NMRI mice to avoid the use of mucin as normally applied in the murine peritonitis model. The mice were rendered neutropenic by cyclophosphamide injections. Treatment with 40 mg/kg meropenem was included as a positive control group and treatment with vehicle was included as a negative control group. The colony counts in peritoneal fluid and blood were determined at 2 and 5 hours after treatment.
• 30 outbred, NMRI female mice, 28-32 grams (Harlan Scandinavia) • Escherichia coli AID#172 from Statens Serum Institute, Copenhagen, Denmark. Clinical isolate from a human wound from 2003. Multiresistant (Ampicillin, Ceftazidime, Aztreonam, Gentamicin, Ciprofloxacin) • NZ17074 in Ringer Acetate pH 6, 1.2 ml 0.75 mg/ml. […] Lot no. 09466C Date of expiration: 08-2013 • APODAN®(A-Pharma, 1 g cyclophosphamide) Batch nr. 928491 • Date of expiration: May 2012 • Water, sterile • 0.9% saline, sterile • 5% Horse Blood Agar plates • Lactose bromthymol blue agar plates
The mice were rendered neutropenic by injecting 0.5 ml cyclophosphamide solution intraperitoneally 4 days (200 mg/kg) and 1 day (100 mg/kg) prior to inoculation.
Fresh overnight E. coli AID#172 colonies from a 5% Horse Blood Agar plate were suspended and diluted in sterile saline to approximately 2×10^6CFU/ml.
One hour before start of treatment (time −1 hour) mice were inoculated intraperitoneally with 0.5 ml of the E. coli suspension in the lateral lower quadrant of the abdomen.
The mice were clinically scored for signs of infection at the time of each sampling. • Score 0: Healthy. • Score 1: Minor clinical signs of infection and inflammation e.g. observations of minor signs of distress or changed activity. • Score 2: Clear signs of infection like, social withdrawal, lack of curiosity, changed body position, piloerection, or changes in pattern of movement. • Score 3: Severe signs of infection like stiff movements, lack of curiosity, forced ventilation, changed body position, piloerection, pain, or changes in pattern o movement. • Score 4: Severe pain and the mouse was sacrificed immediately to minimize the suffering of the animal. • Score 5: The mouse was dead.
The mice were treated i.v. in the lateral tail vein over approximately 30 seconds with a single dose of NZ17074, meropenem or vehicle at time 0 hour (see Table 1). The dosing was based on a mean weight of 30 g. Mice that weighed 28-32 g received 0.30 ml solution. Mice that weighed 27-28 g received 0.25 ml solution and mice that weighed 32.1-36 g received 0.35 ml solution. Mouse 17 accidently received 0.35 ml although it weighed 29.5 g.
Colony counts were determined from blood and peritoneal fluid at 0, 2 and 5 hours after treatment according to Table 1.
The mice were anesthetized with O2+CO2 and blood was collected by axilliary cut down. The mice were sacrificed by cervical dislocation and a total of 2 ml sterile saline was injected i.p. and the abdomen gently massaged before it was opened and fluid sampled with a pipette. Each sample was 10 fold diluted in saline and 20-microliter spots were applied on blood agar plates. All agar plates were incubated 18-22 hours at 35° C. in ambient air.
The CFU numbers are log10 transformed before performing calculations to obtain a normal distribution.

[1] = Meropenem 40 mg/kg single dose, sampling T = 2, individual mice
[2] = Meropenem 40 mg/kg single dose, sampling T = 5, p < 0.01 vs vehicle
[3] = Meropenem 40 mg/kg single dose, sampling T = 5, individual mice
[4] = Meropenem 40 mg/kg single dose, individual mice

C[C@@H](O)[C@H]1C(=O)N2C(C(=O)O)=C(S[C@@H]3CN[C@H](C(=O)N(C)C)C3)[C@H](C)[C@H]12 [meropenem]
CFU levels compared to vehicle, blood (40 mg/kg i.v., 2 hours after treatment): lack of significance
CFU levels compared to vehicle (40 mg/kg i.v.): significantly (p<0.01) reduced CFU levels
CFU levels compared to vehicle (40 mg/kg i.v., listed as Meropenem): significant reduction
difference in CFU levels compared to vehicle treatment, blood (2 hours): blood −0.82 log log cfu/ml
difference in CFU levels compared to vehicle treatment, peritoneum (2 hours): 2 hours: peritoneum −1.51 log cfu/ml
difference in CFU levels compared to vehicle treatment, blood (5 hours): blood −1.64 log log cfu/ml
difference in CFU levels compared to vehicle treatment, peritoneum (5 hours): 5 hours: peritoneum −1.51 log cfu/ml
Score T = 0 hour (Meropenem 40 mg/kg single dose, group sampled T = 2, individual mice): 0
Score T = 0 hour (Meropenem 40 mg/kg single dose, group sampled T = 5, individual mice): 0
log10 CFU Mean Blood (Meropenem 40 mg/kg single dose, sampling T = 2, not significant vs vehicle): 3.76 log10 CFU
log10 CFU Blood [1]: 3.60 log10 CFU and 3.57 log10 CFU and 4.11 log10 CFU
log10 CFU Mean Blood [2]: 3.10** log10 CFU
log10 CFU Blood [3]: 3.20 log10 CFU and 2.85 log10 CFU and 3.26 log10 CFU
Score T = 2 hours [4]: 1
Score T = 5 hours [4]: 0
log10 CFU mean PF (Meropenem 40 mg/kg single dose, sampling T = 2, p < 0.01 vs vehicle): 3.92** log10 CFU
log10 CFU PF [1]: 4.12 log10 CFU and 3.40 log10 CFU and 4.24 log10 CFU
log10 CFU mean PF [2]: 4.21** log10 CFU
log10 CFU PF [3]: 4.38 log10 CFU and 4.00 log10 CFU and 4.26 log10 CFU
